In patent US5106854A, “Quinolinecarboxylic acids” (Shionogi & Co., Ltd., priority 1988, dated 1992):
Values after ≈ are worked out from the molar mass of the structure shown. Counter-ions that a name gives are not always drawn.

Tests used:
Format in all cases: cell-based
Escherichia coli EC-14 = test: Antibacterial spectrum, minimum growth inhibitory concentration (MIC), strain C; settings: EC14, 10^6 cells/ml, Japan Society of Chemotherapy method
Method: (§1) The antibacterial activity was determined by measuring minimum growth inhibitory concentrations (MICs) in accordance with the method designated by the Japan Society of Chemotherapy. A, B, C and D in the table indicate the following meanings: C: Escherichia coli EC-14 The test microorganisms were used at 10^6 cells/ml.

[1] = system: Escherichia coli SR377 (R); test: Antibacterial spectrum, minimum growth inhibitory concentration (MIC), strain D; settings: 10^6 cells/ml, Japan Society of Chemotherapy method
Method: as §1, with “D:” for “C:”, “SR377 (R).” for “EC-14”

[2] = system: Staphylococcus aureus SMITH; test: Antibacterial spectrum, minimum growth inhibitory concentration (MIC), strain A; settings: 10^6 cells/ml, Japan Society of Chemotherapy method
Method: as §1, with “A: Staphylococcus aureus SMITH” for “C: Escherichia coli EC-14”

[3] = system: Staphylococcus aureus SR 14 (R); test: Antibacterial spectrum, minimum growth inhibitory concentration (MIC), strain B; settings: 10^6 cells/ml, Japan Society of Chemotherapy method
Method: The antibacterial activity was determined by measuring minimum growth inhibitory concentrations (MICs) in accordance with the method designated by the Japan Society of Chemotherapy.
A, B, C and D in the table indicate the following meanings:
B: Staphylococcus aureus SR 14 (R)
The test microorganisms were used at 10^6 cells/ml.

| Compound | MIC (Escherichia coli EC-14) [µg/mL] | MIC [1] [µg/mL] | MIC [2] [µg/mL] | MIC [3] [µg/mL] |
| --- | --- | --- | --- | --- |
| CO[C@H]1CN(c2c(F)c(N)c3c(=O)c(C(=O)O)cn(C4CC4)c3c2F)C[C@H]1N (relative stereo) [Compound I-5, 1-Cyclopropyl-5-amino-6,8-difluoro-1,4-dihydro-7-(cis-3-amino-4-methoxy-1-pyrrolidinyl)-4-oxo-3-quinolinecarboxylic acid] | 0.02 (≈ 0.0507 µM) | 0.05 (≈ 0.127 µM) | 0.02 (≈ 0.0507 µM) | 0.05 (≈ 0.127 µM) |
| CN[C@H]1CN(c2c(F)c(N)c3c(=O)c(C(=O)O)cn(C4CC4)c3c2F)C[C@H]1OC [Compound I-1, (+)-1-Cyclopropyl-5-amino-6,8-difluoro-1,4-dihydro-7-(cis-3-methylamino-4-methoxy-1-pyrrolidinyl)-4-oxo-3-quinolinecarboxylic acid hydrochloride] | 0.1 | 0.2 | 0.1 | 0.1 |
| CN[C@@H]1CN(c2c(F)c(N)c3c(=O)c(C(=O)O)cn(C4CC4)c3c2F)C[C@@H]1OC.Cl [Compound I-2, (-)-1-Cyclopropyl-5-amino-6,8-difluoro-1,4-dihydro-7-(cis-3-methylamino-4-methoxy-1-pyrrolidinyl)-4-oxo-3-quinolinecarboxylic acid hydrochloride] | 0.05 | 0.1 | 0.05 | 0.05 |
| CO[C@@H]1CN(c2c(F)c(N)c3c(=O)c(C(=O)O)cn(C4CC4)c3c2F)C[C@@H]1N [Compound I-3, (+)-1-Cyclopropyl-5-amino-6,8-difluoro-1,4-dihydro-7-(cis-3-amino-4-methoxy-1-pyrrolidinyl)-4-oxo-3-quinolinecarboxylic acid hydrochloride] | 0.02 | 0.1 | 0.05 | 0.05 |
| CO[C@H]1CN(c2c(F)c(N)c3c(=O)c(C(=O)O)cn(C4CC4)c3c2F)C[C@H]1N [Compound I-4, (-)-1-Cyclopropyl-5-amino-6,8-difluoro-1,4-dihydro-7-(cis-3-amino-4-methoxy-1-pyrrolidinyl)-4-oxo-3-quinolinecarbxylic acid hydrochloride] | 0.02 | 0.05 | 0.02 | 0.02 |

Results, then the molecule that gave them:

| MIC (Escherichia coli EC-14) [µg/mL] | MIC [1] [µg/mL] | MIC [2] [µg/mL] | MIC [3] [µg/mL] | Compound |
| --- | --- | --- | --- | --- |
| 0.05 (≈ 0.122 µM) | 0.1 (≈ 0.245 µM) | 0.05 (≈ 0.122 µM) | 0.05 (≈ 0.122 µM) | CN[C@@H]1CN(c2c(F)c(N)c3c(=O)c(C(=O)O)cn(C4CC4)c3c2F)C[C@@H]1OC (relative stereo) [Compound I-11, 1-Cyclopropyl-5-amino-6,8-difluoro-1,4-dihydro-7-(cis-3-methylamino-4-methoxy-1-pyrrolidinyl)-4-oxo-3-quinolinecarboxylic acid] |
| 0.1 (≈ 0.277 µM) | 0.1 (≈ 0.277 µM) | 0.2 (≈ 0.553 µM) | 0.4 (≈ 1.11 µM) | CC1COc2c(N3CCN(C)CC3)c(F)cc3c(=O)c(C(=O)O)cn1c23 (stereo not shown) [OFLX, ofloxacin, reference compound] |
